From patent publication US20230211052A1, “COMPOUNDED ACTIVE PHARMACEUTICAL AGENTS IN THERMOPLASTIC POLYMER COMPOSITIONS AND METHODS OF MANUFACTURE” (priority 2021, published 2023)
Where a name gives a salt, the structure may show the parent alone.

test: Thermal stability assessment, oven then HPLC for degradants; assay type: physicochemical; details: oven at 210° C. for 10 mins, compared with unheated sample
Description: The antimicrobial agents were placed into an oven set at 210° C. for 10 mins (to mimic condition in which the antimicrobial agent would be exposed to heat during the compounding and extrusion processes). Another set of the same antimicrobial agents was not exposed to any heat. The unheated and heated samples were then examined through HPLC method for presence of degradants (extra peaks). Results of CHA and CHD are in FIGS. 8, 9, 10, and 11. […] Similar to CHD, ALX-D was also found stable at 210° C. for 10 mins and was found suitable for including in the device through compounding process.

thermal stability, presence of degradants (extra peaks) by HPLC	SMILES
absence of any extra peaks	[H]/N=C(\N/C(=N/[H])NCCCCCCNC(=N)NC(=N)Nc1ccc(Cl)cc1)Nc1ccc(Cl)cc1 [CHD, Chlorhexidine Dihydrochloride]
stable	CCCCC(CC)CNC(=N)NC(=N)NCCCCCCNC(=N)NC(=N)NCC(CC)CCCC (stereo not drawn) [ALX-D, Alexidine Dihydrochloride]
several extra peaks from degradants	CC(=O)O.CC(=O)O.NC(=N\CCCCCC/N=C(N)/N=C(\N)Nc1ccc(Cl)cc1)/N=C(\N)Nc1ccc(Cl)cc1 [CHA, Chlorhexidine Diacetate]
